≈ marks a conversion by molar mass, not a printed value. Read-outs that look alike come from different tables or passages of the source.
What was measured:
[1] = system: A431 (Skin cancer) cell lines; test: MTT assay, A431; assay type: cell-based; conditions: Homo sapiens, read-out: A431 cell lines IC50
Method: A431 (Skin cancer), Colo-205 (Colon cancer), A549 (Lung cancer) cell lines were obtained from National Center for Cell science (NCCS), Pune, India. DMEM (Dulbeccos Modified Eagles Medium), MTT [3-(4,5-dimethylthiazol-2-yl)-2,5-diphenyl tetrazolium bromide], Trypsin, EDTA were purchased from Sigma Chemicals Co (St. Louis, Mo.), Fetal bovine serum were purchased from Arrow labs, 96 well flat bottom tissue culture plates were purchased from Tarson.
A431, Colo-205, A549 cell lines were grown as adherent cells in DMEM media supplemented with 10% fetal bovine serum, 100 μg/ml penicillin, 200 μg/ml streptomycin, 2 mM L-glutamine, and culture was maintained in a humidified atmosphere with 5% CO2. Stock solution of 10 mg/ml was prepared for test molecules in DMSO. From the stock, various dilutions were made with sterile water to get required concentration. A431, Colo-205, A549 cell lines were seeded at a density of 1×10^4 cells (cell number was determined by Trypan blue exclusion dye method) per each well in 100 μl of DMEM supplemented with 10% FBS. 12 hrs after seeding, above media was replaced with fresh DMEM supplemented with 10% FBS. Then, 10 μl sample from above stock solutions were added to each well in triplicates which gives final concentration of 100, 50, 25, 10 μg/well. The above cells were incubated for 48 hrs at 37° C. with 5% CO2. After 48 hrs incubation the above media was replaced with 100 μl of fresh DMEM with out FBS and to this 10 μl of MTT (5 mg dissolved in 1 ml of PBS) was added and incubated for 3 hrs at 37° C. with 5% CO2. After 3 hrs of incubation, the above media was removed with multi channel pipette, then 200 μl of DMSO was added to each well and incubated at 37° C. for 15 min. Finally, the plate was read at 570 nm using spectrophotometer (Spectra Max, Molecular devices).

[2] = molecular target: T1, porcine pancreatic α-amylase (Sus scrofa, UniProt P00690); test: α-Amylase inhibition assay; assay type: biochemical; conditions: for Maltose released: a/b marks the respective control (Control-1 2.147, Control-2 3.429)
T1 construct: α-amylase [EC 3.2.1.1) Type VI B: from porcine pancreas]; purchased Sigma Chemical Co., St Louis, Mo., USA; host or cells: porcine pancreas (natural source)
T1 sequence (P00690 16-511): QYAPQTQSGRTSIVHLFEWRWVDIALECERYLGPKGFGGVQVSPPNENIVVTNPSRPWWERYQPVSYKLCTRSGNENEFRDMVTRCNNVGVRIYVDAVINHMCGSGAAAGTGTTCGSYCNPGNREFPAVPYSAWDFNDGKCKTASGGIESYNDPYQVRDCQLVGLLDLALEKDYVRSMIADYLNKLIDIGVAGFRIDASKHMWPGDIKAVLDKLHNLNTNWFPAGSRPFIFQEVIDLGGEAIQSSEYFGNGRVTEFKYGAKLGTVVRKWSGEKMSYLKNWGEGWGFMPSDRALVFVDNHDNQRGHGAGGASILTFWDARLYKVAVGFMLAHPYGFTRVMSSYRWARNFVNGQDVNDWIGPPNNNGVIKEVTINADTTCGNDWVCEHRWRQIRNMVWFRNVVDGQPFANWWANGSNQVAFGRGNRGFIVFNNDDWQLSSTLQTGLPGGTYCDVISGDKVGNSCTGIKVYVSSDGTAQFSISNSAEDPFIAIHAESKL
Description: Chemicals: α-Glucosidase [(EC 3.2.1.20) Type I: from bakers yeast], rat intestinal acetone powder (as a source of crude intestinal α-glucosidase), α-amylase [EC 3.2.1.1) Type VI B: from porcine pancreas], p-nitrophenyl α-D-glucopyranoside, 3,5-dinitro salicylic acid, soluble potato starch and 1-deoxyrojirimycine, were purchased from Sigma Chemical Co., St Louis, Mo., USA. Other chemicals of analytical grade were procured from indigenous manufacturers.
a-Amylase Inhibition Assay: The assay method was adopted from Ali et al. (2006) and modified accordingly to suite microplate reading. In brief, 40 μL of test samples (10 mg/mL DMSO) were reconstituted in 160 μL of 20 mM phosphate buffer (pH 6.9) containing 6.7 mM sodium chloride in 2 mL Eppendorf tubes and incubated with 200 μL of porcine pancreatic α-amylase) (4 U/mL prepared in ice cold distilled water) for 5 min. The reaction was started by the addition of 400-μL soluble potato starch solution (0.5% w/v in 20 mM phosphate buffer, pH 6.9). Exactly 3 min after incubation, 400 μL DNS color reagent (1.0 g of 3,5-dinitrosalicylic acid, 30 g of sodium potassium tartrate and 20 mL of 2 N NaOH to a final volume of 100 mL in distilled water) was added. Closed tubes were placed in a water bath (85-90° C.) for 10 min to develop color and cooled thereafter. 50 μL of reaction mixtures was diluted with 175 μL of distilled water in a 96-well microplate. α-Amylase activity was determined by measuring the absorbance of the mixture at 540 nm spectrophotometrically as above. Individual blanks were prepared to correct for the background absorbance due to test samples. In this case DNS solution was added in tubes before addition of substrate. The percentage inhibition of enzyme activity was calculated as above. All the tests were run in duplicate in this assay.

[3] = system: crude intestinal α-glucosidase; test: In-vitro mammalian (rat intestinal) α-glucosidase inhibition assay; assay type: biochemical; conditions: for Mammalian α Glucosidase Inhibition (Mean ± S.E): highest concentration 5 mg/ml
How it was run: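 p-Nitrophenol release (405 nm) from 5 mM p-nitrophenyl glucoside, read 5 min after substrate addition following 5 min sample–enzyme preincubation in pH 6.8 phosphate buffer. Enzymes: baker's yeast α-glucosidase (0.76 U/ml) and sonicated rat intestinal acetone powder supernatant. Blank-corrected inhibition vs DMSO; IC50 by log regression.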

| SMILES | IC50 ([1]; A-431, MTT, 48 hrs) [µg/mL] | Maltose released ([2]; 10 mg per ml) [mg/mL] | inhibition at 10000 µg/mL (stock) ([2]; 0.05 h, 10 mg per ml, calculated from maltose released vs respective control) [%] | Maltose release ([2]; end of the reaction, vs control maltose release) | Mammalian α-glucosidase inhibitory activity (in words) [3] | Mammalian α Glucosidase Inhibition (Mean ± S.E) [3] [%] | IC50 ([1]; A-431, 48 h) [µg/mL] | Alpha amylase inhibitory activity (in words) ([2]; 10 mg per ml) | Mammalian α-glucosidase inhibition (Mean ± S.E) ([3]; 0.039063 mg/ml) [%] | Mammalian α-glucosidase inhibition (Mean ± S.E) ([3]; 0.078125 mg/ml) [%] | Mammalian α-glucosidase inhibition (Mean ± S.E) ([3]; 0.15625 mg/ml) [%] | Mammalian α-glucosidase inhibition (Mean ± S.E) ([3]; 0.3125 mg/ml) [%] | Mammalian α-glucosidase inhibition (Mean ± S.E) ([3]; 0.625 mg/ml) [%] | Mammalian α-glucosidase inhibition (Mean ± S.E) ([3]; 1.25 mg/ml) [%] | Mammalian α-glucosidase inhibition (Mean ± S.E) ([3]; 2.5 mg/ml) [%] | Mammalian α-glucosidase inhibition (Mean ± S.E) ([3]; 5 mg/ml) [%] | IC50 ([3]; mammalian α-glucosidase, dose response study) [mg/mL] |
| --- | --- | --- | --- | --- | --- | --- | --- | --- | --- | --- | --- | --- | --- | --- | --- | --- | --- |
| Nc1c2c(nc3sc4c(c13)CCCCC4)CCC2 [BN-18, 1,2,3,6,7,8,9,10-Octahydrocyclohepta[4,5] thieno[2,3-b]cyclopenta [e]pyridin-11-amine] | 53.7 (≈ 208 µM) | 3.972 | -16.2 | more than control | moderate inhibitory activity | 46.22 ± 4.15 | – | – | – | – | – | – | – | – | – | – | – |
| Nc1c2c(nc3sc4c(c13)CCC4)CCC2 [BN-13, 1,2,3,6,7,8-hexahydrocyclopenta [b]cyclopenta[4,5] thieno[3,2-e]pyridin-9-amine] | – | 1.278 | – | – | significant inhibitory activity | 76.13 | 50.1 (≈ 218 µM) | strong inhibitory activity | 10.06 ± 1.36 | 27.07 ± 1.93 | 34.89 ± 2.28 | 44.87 ± 1.62 | 52.97 ± 1.47 | 67.24 ± 1.08 | 71.39 ± 1.82 | 76.13 ± 0.03 | 0.509 (≈ 2210 µM) |
| Nc1c2c(nc3sc4c(c13)CCCC4)CCCCC2 [BN-8, 2,3,4,7,8,9,10,11-Octahydro-1H-benzo[4,5]thieno[2,3-b]cyclohepta [e]pyridin-12-amine] | – | 0.913 | – | – | – | 10.76 ± 0.92 | 51.1 (≈ 188 µM) | strong inhibitory activity | – | – | – | – | – | – | – | – | – |

Source: US20110269790A1, “NOVEL THIENOPYRIDINES AS PHARMACOLOGICALLY ACTIVE AGENTS” (priority 2009, published 2011)
